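Method: 48-hour compound exposure of cells in 96-well plates, five concentrations, linear interpolation of endpoints. TGI denotes the concentration required for complete inhibition of growth.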
Legend:
Test in all cases: inhibition of tumour cell growth, NCI panel, 48 h
HCT-116 colon = test system: HCT-116 colon
TK-10 renal = test system: TK-10 renal
EKVX NSCLC = test system: EKVX NSCLC
HOP-92 NSCLC = test system: HOP-92 NSCLC
OVCAR-8 ovarian = test system: OVCAR-8 ovarian
CAKI-1 renal = test system: CAKI-1 renal
NCI-H460 lung = test system: NCI-H460 lung
U251 CNS = test system: U251 CNS
RPMI-8226 leukemia = test system: RPMI-8226 leukemia
DLD-1 colon = test system: DLD-1 colon
786-0 renal = test system: 786-0 renal
SR leukemia = test system: SR leukemia
DMS 273 small cell lung = test system: DMS 273 small cell lung
M14 melanoma = test system: M14 melanoma
SF-295 CNS = test system: SF-295 CNS
IGROV1 ovarian = test system: IGROV1 ovarian
RXF 393 renal = test system: RXF 393 renal
CCRF-CEM leukemia = test system: CCRF-CEM leukemia
K-562 leukemia = test system: K-562 leukemia
SK-MEL-2 melanoma = test system: SK-MEL-2 melanoma
SF-268 CNS = test system: SF-268 CNS
NCI-H23 lung = test system: NCI-H23 lung
M19-MEL melanoma = test system: M19-MEL melanoma
SW-620 colon = test system: SW-620 colon
HOP-62 NSCLC = test system: HOP-62 NSCLC
OVCAR-5 ovarian = test system: OVCAR-5 ovarian
SNB-75 CNS = test system: SNB-75 CNS
XF 498 CNS = test system: XF 498 CNS
SF-539 CNS = test system: SF-539 CNS
NCI-H522 lung = test system: NCI-H522 lung
ACHN renal = test system: ACHN renal
UACC-257 melanoma = test system: UACC-257 melanoma
NCI-H226 lung = test system: NCI-H226 lung
MOLT-4 leukemia = test system: MOLT-4 leukemia
SNB-19 CNS = test system: SNB-19 CNS
SK-MEL-28 melanoma = test system: SK-MEL-28 melanoma
HT29 colon = test system: HT29 colon
LXFL 529 NSCLC = test system: LXFL 529 NSCLC
HCT-15 colon = test system: HCT-15 colon
UACC-62 melanoma = test system: UACC-62 melanoma
COLO 205 colon = test system: COLO 205 colon
HCC-2998 colon = test system: HCC-2998 colon
KM12 colon = test system: KM12 colon
OVCAR-3 ovarian = test system: OVCAR-3 ovarian
OVCAR-4 ovarian = test system: OVCAR-4 ovarian
A498 renal = test system: A498 renal
LOX IMVI melanoma = test system: LOX IMVI melanoma
SN12C renal = test system: SN12C renal
UO-31 renal = test system: UO-31 renal

O=C1c2ccccc2C(=O)c2c1ccc(O)c2O
TGI (HCT-116 colon): > 100 µM | TGI (TK-10 renal): > 100 µM | TGI (EKVX NSCLC): > 100 µM | TGI (HOP-92 NSCLC): > 100 µM | TGI (OVCAR-8 ovarian): > 100 µM | TGI (CAKI-1 renal): > 100 µM | TGI (NCI-H460 lung): > 100 µM | TGI (U251 CNS): > 100 µM | TGI (RPMI-8226 leukemia): > 100 µM | TGI (DLD-1 colon): > 100 µM | TGI (786-0 renal): > 100 µM | TGI (SR leukemia): > 100 µM | TGI (DMS 273 small cell lung): > 100 µM | TGI (M14 melanoma): > 100 µM | TGI (SF-295 CNS): > 100 µM | TGI (IGROV1 ovarian): > 100 µM | TGI (RXF 393 renal): 88.7 µM | TGI (CCRF-CEM leukemia): > 100 µM | TGI (K-562 leukemia): > 100 µM | TGI (SK-MEL-2 melanoma): > 100 µM | TGI (SF-268 CNS): > 100 µM | TGI (NCI-H23 lung): > 100 µM | TGI (M19-MEL melanoma): > 100 µM | TGI (SW-620 colon): > 100 µM | TGI (HOP-62 NSCLC): > 100 µM | TGI (OVCAR-5 ovarian): > 100 µM | TGI (SNB-75 CNS): 69.2 µM | TGI (XF 498 CNS): > 100 µM | TGI (SF-539 CNS): > 100 µM | TGI (NCI-H522 lung): > 100 µM | TGI (ACHN renal): > 100 µM | TGI (UACC-257 melanoma): > 100 µM | TGI (NCI-H226 lung): > 100 µM | TGI (MOLT-4 leukemia): > 100 µM | TGI (SNB-19 CNS): > 100 µM | TGI (SK-MEL-28 melanoma): > 100 µM | TGI (HT29 colon): > 100 µM | TGI (LXFL 529 NSCLC): > 100 µM | TGI (HCT-15 colon): > 100 µM | TGI (UACC-62 melanoma): 55.3 µM | TGI (COLO 205 colon): > 100 µM | TGI (HCC-2998 colon): > 100 µM | TGI (KM12 colon): > 100 µM | TGI (OVCAR-3 ovarian): > 100 µM | TGI (OVCAR-4 ovarian): > 100 µM | TGI (A498 renal): > 100 µM | TGI (LOX IMVI melanoma): > 100 µM | TGI (SN12C renal): > 100 µM | TGI (UO-31 renal): > 100 µM
